Experimental data reported in paper PMC10215404, “Effect of Indole-Containing Pyrazino[2,1-b]quinazoline-3,6-diones in the Virulence of Resistant Bacteria” (Antibiotics, 2023).
Converted amounts (≈) assume the structure as drawn.

Legend:
Vibrio harveyi = conditions: aqua-pathogenic Vibrio harveyi; literature, reference not given; cited from earlier work
S. aureus 272123 = assay: Real-time ethidium bromide accumulation assay (efflux pump inhibition); conditions: minute 60
[1] = system: NIH/3T3 mouse fibroblast cell line; assay: Cytotoxicity assay (MTT); format: cell-based; conditions: NIH3T3, 24 h
Description: The effects of increasing concentrations of compounds on cell growth were tested in 96-well flat-bottomed microtiter plates. The compounds were diluted in a volume of 100 μL of medium. Afterwards, 1 × 10^4 cells in 100 μL of medium were added to each well, with the exception of the medium control. In the case of NIH/3T3 cells, the compounds were added after seeding the cells at 37 °C overnight. The plates were incubated at 37 °C for 24 h; after the incubation period, 20 μL of MTT solution (from a 5 mg/mL stock) was added to each well. After 4 h of incubation at 37 °C, 100 μL of SDS solution (10% in 0.01 M HCl) was added to each well and the plates were incubated at 37 °C overnight. Cell growth was determined by measuring the optical density (OD) at 540 nm (ref. 630 nm) with a Multiscan EX ELISA reader. Inhibition of cell growth was determined as IC50 values, defined as the inhibitory dose that reduced the growth of the cells exposed to the tested compounds by 50%. IC50 values and the SD of triplicate experiments were calculated by using GraphPad Prism software version 5.00 for Windows with a nonlinear regression curve fit (GraphPad Software, San Diego, CA, USA; www.graphpad.com, accessed on 14 July 2022). Doxorubicin (from a 2 mg/mL stock solution, Teva Pharmaceuticals) was used as the positive control.

S. aureus ATCC 29213 = assay: MIC determination, broth microdilution; format: cell-based; conditions: Staphylococcus aureus, ATCC29213
From the text: (§1) Both reference and resistant strains used in this work were employed by our group for the screening of different families of compounds, such as xanthones and thioxanthones.

S. aureus MRSA 272123 = assay: MIC determination, broth microdilution; format: cell-based; conditions: Staphylococcus aureus
From the text: as §1

S. aureus 66/1 (MRSA) = assay: MIC determination, broth microdilution; format: cell-based; conditions: Staphylococcus aureus
From the text: as §1

[2] = system: E. coli (ATCC 25922, SA/2, AG100, AG100A); assay: MIC determination, broth microdilution; format: cell-based; conditions: Escherichia coli, ATCC25922
From the text: as §1

P. aeruginosa ATCC 27853 = assay: MIC determination, broth microdilution; format: cell-based; conditions: Pseudomonas aeruginosa, ATCC27853
From the text: as §1

E. faecalis ATCC 29212 = assay: MIC determination, broth microdilution; format: cell-based; conditions: Enterococcus faecalis, ATCC29212
From the text: as §1

E. faecalis B3/101 (VRE) = assay: MIC determination, broth microdilution; format: cell-based; conditions: Enterococcus faecalis
From the text: as §1

H1N1 = system: H1N1; parameters: method as in PMID 23758051; conditions: anti-viral; cited from earlier work
E. coli AG100A [3] = assay: Real-time ethidium bromide accumulation assay (efflux pump inhibition); conditions: compound at 100 μM, minute 60
E. coli AG100 [4] = assay: as above; conditions: minute 60
E. coli AG100 [5] = assay: Biofilm formation, crystal violet method; format: cell-based, Escherichia coli; conditions: 50 μM
Description: (§2) The antibiofilm effect of the tested compounds was evaluated using the crystal violet method on E. coli AG100, E. coli AG100A, and MRSA 272123. […] CCCP was used as a positive control.
(§3) The biofilm-forming ability of the S. aureus strains was studied in 96-well microtiter plates using TSB broth in the presence of compounds. The biofilm-forming ability of the E. coli strains was studied in 96-well microtiter plates using LB broth in the presence of the compounds. […] The final volume was 200 μL in each well. The positive control was CCCP at 50 µM. Plates were incubated for 48 h at 30 °C with gentle shaking at 100 rpm. After the incubation period, the medium was removed and the plate was washed with water to remove unattached cells. A total of 200 μL CV (0.1% [v/v]) was added to each wells and incubated for 15 min at room temperature. CV was discarded from the wells and the plate was washed with water again. Then, 200 μL of 70% ethanol was added to each well and the biofilm formation was determined by measuring the OD at 600 nm using a Multiscan EX ELISA plate reader (Thermo Labsystems, Cheshire, WA, USA). The antibiofilm effect of the compounds was expressed as the percentage (%) decrease in biofilm formation.

E. coli AG100A [6] = assay: Biofilm formation, crystal violet method; format: cell-based, Escherichia coli
Description: as §2, §3

phytopathogenic fungi = system: phytopathogenic fungi; parameters: method as in PMID 22409377; conditions: several phytopathogenic fungi; cited from earlier work
Staphylococcus aureus = conditions: sensitive and methicillin-resistant strains of S. aureus; cited from earlier work
Enterococcus faecalis = conditions: sensitive and vancomycin-resistant strains of E. faecalis; cited from earlier work
[7] = system: human brain endothelial cell line (hCMEC/D3); parameters: method as in PMID 27268269; conditions: cited from earlier work

SMILES	RFI ± SD (S. aureus 272123; compound at 50 μM)	RFI ± SD (S. aureus 272123; compound at 100 μM)	IC50 [1] [µM]	MIC (S. aureus ATCC 29213) [µM]	MIC (S. aureus MRSA 272123) [µM]	MIC (S. aureus 66/1 (MRSA)) [µM]	MIC [2] [µM]	MIC (P. aeruginosa ATCC 27853) [µM]	MIC (E. faecalis ATCC 29212) [µM]	MIC (E. faecalis B3/101 (VRE)) [µM]	RFI ± SD (E. coli AG100A [3])	RFI ± SD (E. coli AG100 [4]; compound at 50 μM)	RFI ± SD (E. coli AG100 [4]; compound at 100 μM)	also measured
O=C1NCc2nc3ccccc3c(=O)n2[C@@H]1Cc1c[nH]c2ccccc12 [Compound 1, (R)-4-((1H-indol-3-yl)methyl)-1,2-dihydro-6H-pyrazino[2,1-b]quinazoline-3,6(4H)-dione]	0.23 ± 0.02	−0.01 ± 0.04	> 100	> 100	> 100	> 100	> 100	> 100	> 100	> 100	0.12 ± 0.01	−0.24 ± 0.05	−0.04 ± 0.10	MIC (Vibrio harveyi): 32 µg/mL (≈ 92.9 µM); IC50 (H1N1): 100 to 150 µM
C[C@@H]1NC(=O)[C@@H](Cc2c[nH]c3ccccc23)n2c1nc1ccccc1c2=O [Compound 2, (1S,4R)-4-((1H-indol-3-yl)methyl)-1-methyl-1,2-dihydro-6H-pyrazino[2,1-b]quinazoline-3,6(4H)-dione]	−0.01 ± 0.02	0.05 ±0.02	> 100	> 100	> 100	> 100	> 100	> 100	> 100	> 100	0.26 ± 0.10	−0.31 ± 0.02	0.17 ± 0.10	antibiofilm effect (in words) (E. coli AG100 [5]): reduced the amount of biofilm; decrease in biofilm formation (E. coli AG100A [6]): 65%; MIC (phytopathogenic fungi): 12.5 to 25 µg/mL
CC(C)[C@@H]1NC(=O)[C@@H](C[C@]2(O)c3ccccc3N3C(=O)[C@@H](C)N[C@H]32)n2c1nc1ccccc1c2=O [Compound 3, Neofiscalin A]	–	–	–	–	–	–	–	–	–	–	–	–	–	MIC (Staphylococcus aureus): 8 µg/mL (≈ 16.9 µM); MIC (Enterococcus faecalis): 8 µg/mL (≈ 16.9 µM); cytotoxicity (in words) [7]: no cytotoxicity
